Reference: patent publication US20240199618A1, “NOVEL N-ACYL-[3-SUBSTITUTED]-[8-SUBSTITUTED]-5,6-DIHYDRO-[1,2,4]TRIAZOLO[4,3-a]PYRAZINES AS SELECTIVE NK-3 RECEPTOR ANTAGONISTS, PHARMACEUTICAL COMPOSITION, METHODS FOR USE IN NK-3 RECEPTOR-MEDIATED DISORDERS” (Ogeda SA, priority 2013, published 2024)
Where two headings read alike, the source gives them in different places.

What was measured:
[1] = biological target: T1, human NK-3 receptor (Homo sapiens (Human), UniProt P29371); test: Aequorin functional assay with human NK-3 receptor (antagonist testing vs NKA); format: cell-based; conditions: CHO cells, NKA at EC80 (3 nM); read-out: Functional assay: Aequorin assay with human NK-3 receptor hNK-3-AEQ (antagonist IC50)
T1 sequence (P29371 whole entry): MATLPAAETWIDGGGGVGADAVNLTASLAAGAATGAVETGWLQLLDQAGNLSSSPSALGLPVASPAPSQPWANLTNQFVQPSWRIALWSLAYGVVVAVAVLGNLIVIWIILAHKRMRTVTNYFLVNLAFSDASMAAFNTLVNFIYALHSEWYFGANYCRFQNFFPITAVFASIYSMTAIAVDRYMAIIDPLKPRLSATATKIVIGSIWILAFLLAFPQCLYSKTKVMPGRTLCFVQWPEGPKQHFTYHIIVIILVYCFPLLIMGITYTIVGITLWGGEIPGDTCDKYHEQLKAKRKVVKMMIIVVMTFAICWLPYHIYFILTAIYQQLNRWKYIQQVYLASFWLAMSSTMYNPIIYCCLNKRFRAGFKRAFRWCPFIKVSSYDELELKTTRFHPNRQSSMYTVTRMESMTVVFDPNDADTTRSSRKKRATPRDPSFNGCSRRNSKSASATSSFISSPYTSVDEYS
Protocol: Aequorin Assay with Human NK-3 Receptor
Changes in intracellular calcium levels are a recognized indicator of G protein-coupled receptor activity. The efficacy of compounds of the invention to inhibit NKA-mediated NK-3 receptor activation was assessed by an in vitro Aequorin functional assay. Chinese Hamster Ovary recombinant cells expressing the human NK-3 receptor and a construct that encodes the photoprotein apoaequorin were used for this assay. In the presence of the cofactor coelenterazine, apoaequorin emits a measurable luminescence that is proportional to the amount of intracellular (cytoplasmic) free calcium.
The antagonist activity of compounds of the invention is measured following pre-incubation (3 minutes) of the compound (at various concentrations) with the cells, followed by addition of the reference agonist (NKA) at a final concentration equivalent to the EC80 (3 nM) and recording of emitted light (FDSS 6000 Hamamatsu) over the subsequent 90-second period. The intensity of the emitted light is integrated using the reader software. Compound antagonist activity is measured based on the concentration-dependent inhibition of the luminescence response to the addition of Neurokinin A.

[2] = biological target: T1, human NK-3 receptor; test: 3H-SB222200 binding competition assay with human NK-3 receptor
Protocol: The affinity of compounds of the invention for the human NK-3 receptor was determined by measuring the ability of compounds of the invention to competitively and reversibly displace a well-characterized NK-3 radioligand in a concentration-dependent manner.
^3H-SB222200 Binding Competition Assay with Human NK-3 Receptor
Membranes were prepared from Chinese hamster ovary recombinant cells stably expressing the human NK-3 receptor. The membranes were incubated with 5 nM ^3H-SB222200 (ARC) in a HEPES 25 mM/NaCl 0.1M/CaCl2 1 mM/MgCl2 5 mM/BSA 0.5%/Saponin 10 μg/ml buffer at pH 7.4 and various concentrations of compounds of the invention. The amount of ^3H-SB222200 bound to the receptor was determined after filtration by the quantification of membrane associated radioactivity using the TopCount-NXT reader (Packard).

[3] = biological target: human NK-1 receptor (Homo sapiens (Human), UniProt P25103); test: Selectivity assay: [3H] substance P binding, human NK-1 receptor; conditions: 2 nM [3H] substance P, CHO membranes; read-out: hNK-1 (Ki)
Chain of human NK-1 receptor (P25103 whole entry): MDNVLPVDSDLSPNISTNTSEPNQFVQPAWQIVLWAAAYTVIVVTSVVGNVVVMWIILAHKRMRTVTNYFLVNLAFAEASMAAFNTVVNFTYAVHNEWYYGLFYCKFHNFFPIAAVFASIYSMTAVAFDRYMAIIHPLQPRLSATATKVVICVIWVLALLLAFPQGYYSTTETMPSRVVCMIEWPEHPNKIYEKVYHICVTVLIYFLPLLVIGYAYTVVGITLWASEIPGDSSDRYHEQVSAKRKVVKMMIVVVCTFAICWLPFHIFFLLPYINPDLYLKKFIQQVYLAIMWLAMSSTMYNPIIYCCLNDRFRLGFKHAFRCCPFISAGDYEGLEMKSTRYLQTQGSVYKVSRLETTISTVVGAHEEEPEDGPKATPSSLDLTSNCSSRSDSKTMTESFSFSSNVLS
Protocol: Selectivity of the compounds of the invention was determined over the other human NK receptors, namely NK-1 and NK-2 receptors.
The affinity of compounds of the invention for the NK-1 receptor was evaluated in CHO recombinant cells which express the human NK-1 receptor. Membrane suspensions were prepared from these cells. The following radioligand: [^3H] substance P (PerkinElmer Cat #NET111520) was used in this assay. Binding assays were performed in a 50 mM Tris/5 mM MnCl2/150 mM NaCl/0.1% BSA at pH 7.4. Binding assays consisted of 25 μl of membrane suspension (approximately 5 μg of protein/well in a 96 well plate), 50 μl of compound or reference ligand (Substance P) at increasing concentrations (diluted in assay buffer) and 2 nM [^3H] substance P. The plate was incubated 60 min at 25° C. in a water bath and then filtered over GF/C filters (Perkin Elmer, 6005174, presoaked in 0.5% PEI for 2 h at room temperature) with a Filtration unit (Perkin Elmer). The radioactivity retained on the filters was measured by using the TopCount-NXT reader (Packard).

[4] = biological target: human NK-2 receptor (Homo sapiens (Human), UniProt P21452); test: Selectivity assay: [125I]-Neurokinin A binding, human NK-2 receptor; conditions: 0.1 nM [125I]-Neurokinin A, CHO membranes; read-out: hNK-2 (Ki)
Chain of human NK-2 receptor (P21452 whole entry): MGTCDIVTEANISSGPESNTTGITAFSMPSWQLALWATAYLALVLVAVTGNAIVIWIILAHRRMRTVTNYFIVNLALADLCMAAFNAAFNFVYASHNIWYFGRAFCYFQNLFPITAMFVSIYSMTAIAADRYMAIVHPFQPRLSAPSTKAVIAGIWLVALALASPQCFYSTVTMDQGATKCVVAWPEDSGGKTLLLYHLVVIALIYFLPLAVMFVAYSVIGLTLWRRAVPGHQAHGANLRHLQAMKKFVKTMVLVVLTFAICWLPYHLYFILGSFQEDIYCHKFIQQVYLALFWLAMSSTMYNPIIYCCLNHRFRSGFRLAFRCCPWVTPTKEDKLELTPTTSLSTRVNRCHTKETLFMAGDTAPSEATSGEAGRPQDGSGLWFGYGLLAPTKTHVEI
Protocol: The affinity of compounds of the invention for the NK-2 receptor was evaluated in CHO recombinant cells which express the human NK-2 receptor. Membrane suspensions were prepared from these cells. […] Binding assays were performed in a 25 mM HEPES/1 mM CaCl2)/5 mM MgCl2/0.5% BSA/10 μg/ml saponin, at pH 7.4. […] The radioactivity retained on the filters was measured by using the TopCount-NXT reader (Packard).

[5] = test system: plasma protein; test: Determination of plasma protein binding (equilibrium dialysis, RED); format: in vitro ADME; conditions: 4 hours at 37° C.
Description: Determination of plasma protein binding The pharmacokinetic and pharmacodynamic properties of chemicals/drugs are largely a function of the reversible binding of chemicals to plasma or serum proteins. […] Consequently, the extent of the plasma protein binding (PPB) of a compound influences its action as well as its distribution and elimination.
The determination of plasma protein binding (PPB) of a compound is enabled by equilibrium dialysis, an accepted and standard method for reliable estimation of the non-bound drug fraction in plasma. RED (Rapid Equilibrium Dialysis) device insert is made of two side-by-side chambers separated by an O-ring-sealed vertical cylinder of dialysis membrane (MWCO ˜8,000). […] After 4 hours incubation at 37° C. under shaking, an aliquot is removed from each chamber and analyzed by a LC-MS/MS procedure enables the determination of both free and bound drug.
The “free fraction” may be calculated as 100%−% rPPB (i.e. the complementary percentage of that disclosed in Table 4, corresponding to the drug concentration that is unbound and therefore available to engage biological target and elicit pharmacological activity).

[6] = Table 2, 5 nM 3H-SB222200, CHO membranes, read-out: Competitive binding assay with human NK-3 receptor hNK-3 (Ki)
[7] = Table 3 (selectivity table), read-out: hNK-3 (Ki)

| IC50 [1] [nM] | Ki [2, 6] [nM] | Ki [2, 7] [nM] | Ki [3] [nM] | Ki [4] [nM] | Exposure (% rPPB), bound drug fraction to plasma protein [5] [%] | Structure (SMILES) |
| --- | --- | --- | --- | --- | --- | --- |
| 285 | 100 | 100 | > 30000 | > 30000 | 27 | CC(F)c1noc(-c2nnc3n2CCN(C(=O)c2ccc(F)cc2)[C@@H]3C)n1 (single isomer, unassigned) [Compound 45-1] |
| 148 | 83 | 83 | > 30000 | > 30000 | 33 | CC(F)c1noc(-c2nnc3n2CCN(C(=O)c2ccc(F)cc2)[C@@H]3C)n1 (single isomer, unassigned) [Compound 45-2] |
| 30 | 24 | 24 | 22100 | 25000 | 53 | Cc1nsc(-c2nnc3n2CCN(C(=O)c2ccc(F)c(Cl)c2)[C@@H]3C)n1 [Compound 6, (R)-(3-chloro-4-fluorophenyl)(8-methyl-3-(3-methyl-1,2,4-thiadiazol-5-yl)-5,6-dihydro-[1,2,4]triazolo[4,3-a]pyrazin-7(8H)-yl)methanone] |
| 30 | 26 | 26 | > 30000 | 36000 | 26 | Cc1nsc(-c2nnc3n2CCN(C(=O)c2cc(F)c(F)c(F)c2)[C@@H]3C)n1 [Compound 7, (R)-(8-methyl-3-(3-methyl-1,2,4-thiadiazol-5-yl)-5,6-dihydro-[1,2,4]triazolo[4,3-a]pyrazin-7(8H)-yl)(3,4,5-trifluorophenyl)methanone] |
| 56 | 31 | 31 | > 30000 | 49000 | 30 | Cc1nsc(-c2nnc3n2CCN(C(=O)c2cc(F)c(F)c(F)c2F)[C@@H]3C)n1 [Compound 10, (R)-(8-methyl-3-(3-methyl-1,2,4-thiadiazol-5-yl)-5,6-dihydro-[1,2,4]triazolo[4,3-a]pyrazin-7(8H)-yl)(2,3,4,5-tetrafluorophenyl)methanone] |
| 50 | 45 | 45 | > 30000 | > 30000 | 20 | Cc1nsc(-c2nnc3n2CCN(C(=O)c2cccc(F)c2)[C@@H]3C)n1 [Compound 15, (R)-(3-fluorophenyl)(8-methyl-3-(3-methyl-1,2,4-thiadiazol-5-yl)-5,6-dihydro-[1,2,4]triazolo[4,3-a]pyrazin-7(8H)-yl)methanone] |
| 71 | 49 | 49 | > 30000 | 37000 | 36 | Cc1nsc(-c2nnc3n2CCN(C(=O)c2cccc(Cl)c2)[C@@H]3C)n1 [Compound 16, (R)-(3-chlorophenyl)(8-methyl-3-(3-methyl-1,2,4-thiadiazol-5-yl)-5,6-dihydro-[1,2,4]triazolo[4,3-a]pyrazin-7(8H)-yl)methanone] |
| 50 | 51 | 51 | > 30000 | > 30000 | 24 | Cc1nsc(-c2nnc3n2CCN(C(=O)c2cc(F)cc(F)c2)[C@@H]3C)n1 [Compound 17, (R)-(3,5-difluorophenyl)(8-methyl-3-(3-methyl-1,2,4-thiadiazol-5-yl)-5,6-dihydro-[1,2,4]triazolo[4,3-a]pyrazin-7(8H)-yl)methanone] |
| 87 | 54 | 54 | > 30000 | > 30000 | 23 | Cc1nsc(-c2nnc3n2CCN(C(=O)c2ccc(F)cc2F)[C@@H]3C)n1 [Compound 18, (R)-(2,4-difluorophenyl)(8-methyl-3-(3-methyl-1,2,4-thiadiazol-5-yl)-5,6-dihydro-[1,2,4]triazolo[4,3-a]pyrazin-7(8H)-yl)methanone] |
| 110 | 56 | 56 | > 30000 | > 30000 | 51 | Cc1ccc(C(=O)N2CCn3c(-c4nc(C)ns4)nnc3[C@H]2C)cc1 [Compound 19, (R)-(8-methyl-3-(3-methyl-1,2,4-thiadiazol-5-yl)-5,6-dihydro-[1,2,4]triazolo[4,3-a]pyrazin-7(8H)-yl)(p-tolyl)methanone] |
| 150 | 63 | 63 | > 30000 | > 30000 | 38 | Cc1nsc(-c2nnc3n2CCN(C(=O)c2ccc(C(F)(F)F)cc2)[C@@H]3C)n1 [Compound 21, (R)-(8-methyl-3-(3-methyl-1,2,4-thiadiazol-5-yl)-5,6-dihydro-[1,2,4]triazolo[4,3-a]pyrazin-7(8H)-yl)(4-(trifluoromethyl)phenyl)methanone] |
| 130 | 69 | 69 | > 30000 | > 30000 | 27 | CC[C@@H]1c2nnc(-c3nc(C)ns3)n2CCN1C(=O)c1ccc(F)cc1 [Compound 22, (R)-(8-ethyl-3-(3-methyl-1,2,4-thiadiazol-5-yl)-5,6-dihydro-[1,2,4]triazolo[4,3-a]pyrazin-7(8H)-yl)(4-fluorophenyl)methanone] |
| 120 | 78 | 78 | > 30000 | > 30000 | 48 | CCC[C@@H]1c2nnc(-c3nc(C)ns3)n2CCN1C(=O)c1ccc(F)cc1 [Compound 24, (R)-(4-fluorophenyl)(3-(3-methyl-1,2,4-thiadiazol-5-yl)-8-propyl-5,6-dihydro-[1,2,4]triazolo[4,3-a]pyrazin-7(8H)-yl)methanone] |
| 110 | 85 | 85 | > 30000 | > 30000 | 19 | COc1cc(C(=O)N2CCn3c(-c4nc(C)ns4)nnc3[C@H]2C)ccc1F [Compound 25, (R)-(4-fluoro-3-methoxyphenyl)(8-methyl-3-(3-methyl-1,2,4-thiadiazol-5-yl)-5,6-dihydro-[1,2,4]triazolo[4,3-a]pyrazin-7(8H)-yl)methanone] |
